“Also recorded” adds a separate entry of the source. {Pso} = 4'-hydroxymethyl-4,5',8-trimethylpsoralen through a two-carbon linker arm and a phosphodiester
Columns and labels:
[1] = system: supF gene (250 bp fragment); experiment: Triplex binding assay (32P-labelled oligonucleotide, gel electrophoresis); design: species or system E. coli; settings: for Binding of oligonucleotide to supF gene fragment: 32P-labelled oligomer 6×10^−8 M, oligomer:supF about 1:1, 2 hours at 37 degrees; for Competition with 32P-labelled AG10 for binding to supF: unlabelled competitor at 200-fold molar excess
Description: The target gene chosen was supF, an E. coli amber suppressor tyrosine tRNA gene, contained within the genome of a lambda phage vector, lambda supF as shown in FIG. 1. A 10 base homopurine oligonucleotide AG10 (5′AGGAAGGGGG 3′) capable of forming a triple strand at positions 167–176 in the supF gene was identified.
The 250 bp supF target was generated from lambda supF using the polymerase chain reaction. Each oligo (200 ng) was labelled with 50 μCi of gamma-^32P-ATP (Amersham, Arlington Heights, Ill.) and separated from unreacted gamma^32P-ATP by passage through a G-25 spin column (Boehringer Mannheim, Indianapolis, Ind.). The concentration of oligomer in the reaction mixture was 6×10^−8 M and the oligomer:supF ratio was approximately 1:1 on a molar basis. When present, competitors were used at 200-fold molar excess.
Following the 2 hour binding step, reaction mixtures were run on a 4% acrylamide gel in 90 mM Tris base, 90 mM boric acid, 20 mM MgCl2 with a 20% acrylamide plug. A 100 bp ladder (BRL, Bethesda, Md.) was end-labelled as described for oligomers and run on gels as a size reference. Following a 4 hour run at constant voltage (150 V), the gel was visualized by autoradiography for 1 hour using Kodak X-AR film. […] To assay for triplex formation, ^32P-labeled oligonucleotides, either AG10 (^5 AGGAAGGGGG^3) (SEQ ID NO:2) or the reverse sequence oligomer (GA10), were incubated with a […] double-stranded fragment containing the entire supF gene. The products of the binding reactions were visualized by polyacrylamide gel electrophoresis and autoradiography.
When no supF target DNA was present, there was no band observed at this position. […] In lanes 5–8, no binding of the ^32P-labelled GA10 to supF was detected: GA10 alone without supF; GA10 plus supF; GA10 plus supF with excess unlabelled GA10; GA10 plus supF with excess AG10.

supF gene = settings: free psoralen plus UVA, published data, FIG. 2B/5B; cited from earlier work

5′AGGAAGGGGG 3′ (DNA, 5' {Pso}, backbone not given here; triplex-forming oligonucleotide) [AG10, 10 base homopurine oligonucleotide capable of forming a triple strand at positions 167–176 in the supF gene]
Binding of oligonucleotide to supF gene fragment [1]: Binding of labelled AG10 to the added supF DNA was demonstrated; also recorded: bound specifically to the supF gene
Competition with 32P-labelled AG10 for binding to supF [1]: competed with the ^32P-labelled AG10

COc1c2occc2cc2ccc(=O)oc12 [8-methoxypsoralen]
Occurrence of supF mutations at base pair 167 (supF gene): none of them occur at position 167; also recorded: none were found to occur at base pair 167

5′ GGGGGAAGGA 3′ (DNA, 5' {Pso}, backbone not given here; triplex-forming reverse control oligonucleotide) [GA10]
Binding of oligonucleotide to supF gene fragment [1]: no binding; also recorded: failed to bind to supF; also recorded: did not bind
Competition with 32P-labelled AG10 for binding to supF [1]: did not compete with AG10; also recorded: failed to bind to supF or to compete with AG10 for binding
